What all share (test): growth of human tumour cells (NCI), 48 h
Experiment [1] has as its system SNB-78 CNS.
Experiment [2] has as its system XF 498 CNS.
The subject of experiment [3] is HOP-18 NSCLC.
The test system of experiment [4] is DMS 273 small cell lung.
Experiment [5] deals with DMS 114 small cell lung.

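Tested at 5 concentrations; 48 h exposure; 96-well plates; endpoints linearly interpolated, else capped at highest concentration. Definition used: TGI = concentration required for complete inhibition of growth.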

With `O=C1C(=O)N(C2C3CC4CC(C3)CC2C4)C(=O)C(=O)C1c1nc2ccccc2o1` (stereo not given), the TGI in experiment [1] was over 100 µM; in experiment [2], over 100 µM; in experiment [3], over 100 µM; in experiment [4], over 100 µM; in experiment [5], 44.7 µM.

As for `CCC1CN2CCc3cc(OC)c(OC)cc3C2CC1CC1c2cc(OC)c(OC)cc2CCN1C(=O)CNC(=O)OC(C)(C)C` (stereo not given), the TGI in experiment [1] is 51 µM; in experiment [2], 28.9 µM; in experiment [3], 70.7 µM; in experiment [4] it was 37.8 µM; in experiment [5], 20 µM.

Regarding `COc1ccc2cc3n(c2c1)CCc1cc(OC)c(OC)cc1-3`, the TGI in experiment [1], in experiment [2], in experiment [3], in experiment [4] and in experiment [5] was over 100 µM in each case.

Turning to `Cc1cccc(C)c1NC(=O)CCCC(=O)C1CCC/C1=N\NC(=O)C(=O)NN` (stereo not given), the TGI in experiment [1], in experiment [2], in experiment [3], in experiment [4] and in experiment [5] was over 100 µM throughout.

As to `Cc1cccc(C(C)(C)C)c1NC(=O)C(=O)C(c1cnc2ccccc2n1)[N+](=O)[O-]` (stereo not given), the TGI in experiment [1], in experiment [2], in experiment [3], in experiment [4] and in experiment [5] was over 100 µM in each case.

Consider `CCO[C@@H]1C2C=CC(C2)[C@H]1[N+](=O)[O-]` (stereo not given in full), for which the TGI in experiment [1], in experiment [2], in experiment [3], in experiment [4] and in experiment [5] was over 100 µM each time.

Source of the values: PubChem BioAssay (NCI).
